Common to all, as to assay type: functional
The test system of assay [1] is Eleusine indica. The assay is described as follows: Herbicidal activity against Eleusine indica assessed as disease control at 1000 ppm treated in foliage during 15 to 20 days relative to control.
For another assay, the system named is Pyricularia oryzae. In words: Antifungal activity against Magnaporthe oryzae after 7 days. Also on record: concentration or dose not given beside the values.
Assay [2] deals with Pseudoperonospora cubensis. The assay is described as follows: Antifungal activity against Pseudoperonospora cubensis after 7 days. The arrangement: concentration or dose not given beside the values.
The subject of assay [3] is Echinochloa crus-galli. The assay is described as follows: Herbicidal activity against Echinochloa crus-galli (barnyard grass) assessed as disease control at 1000 ppm treated in foliage during 15 to 20 days relative to control.
Another assay has as its system Cyperus compressus. In words: Herbicidal activity against Cyperus compressus assessed as disease control at 1000 ppm treated in paddy field during 15 to 20 days relative to control.
The subject of assay [4] is Eleusine indica. In words: Herbicidal activity against Eleusine indica assessed as disease control at 1000 ppm treated in soil during 15 to 20 days relative to control.
In assay [5] the test system is Chenopodium album. In words: Herbicidal activity against Chenopodium album assessed as disease control at 1000 ppm treated in foliage during 15 to 20 days relative to control.
The subject of assay [6] is Echinochloa crus-galli. The assay is described as follows: Herbicidal activity against Echinochloa crus-galli (barnyard grass) assessed as disease control at 1000 ppm treated in soil during 15 to 20 days relative to control.
For a further assay, the system named is Oryza sativa. In words: Herbicidal activity against Oryza sativa assessed as disease control at 1000 ppm treated in paddy field during 15 to 20 days relative to control.
The subject of assay [7] is Persicaria hydropiper. The assay is described as follows: Herbicidal activity against Persicaria hydropiper assessed as disease control at 1000 ppm treated in foliage during 15 to 20 days relative to control.
The next assay relates to Botrytis cinerea. In words: Antifungal activity against Botryotinia fuckeliana after 7 days. The arrangement: concentration or dose not given beside the values.
Assay [8] relates to Chenopodium album. In words: Herbicidal activity against Chenopodium album assessed as disease control at 1000 ppm treated in soil during 15 to 20 days relative to control.
The subject of assay [9] is Persicaria hydropiper. The assay is described as follows: Herbicidal activity against Persicaria hydropiper assessed as disease control at 1000 ppm treated in soil during 15 to 20 days relative to control.
Assay [10] relates to Echinochloa crus-galli. The assay is described as follows: Herbicidal activity against Echinochloa crus-galli (barnyard grass) assessed as disease control at 1000 ppm treated in paddy field during 15 to 20 days relative to control.
Another assay deals with Xanthomonas axonopodis. The assay is described as follows: Antibacterial activity against Xanthomonas axonopodis after 7 days. Also on record: concentration or dose not given beside the values.
The test system of assay [11] is Amaranthus viridis. The assay is described as follows: Herbicidal activity against Amaranthus viridis assessed as disease control at 1000 ppm treated in soil during 15 to 20 days relative to control.
The subject of a further assay is Fusarium fujikuroi. The assay is described as follows: Antifungal activity against Fusarium fujikuroi after 7 days. Also on record: concentration or dose not given beside the values.
Assay [12] has as its system Amaranthus viridis. In words: Herbicidal activity against Amaranthus viridis assessed as disease control at 1000 ppm treated in foliage during 15 to 20 days relative to control.

As to `c1ccc2nc(-c3nc4ccccc4o3)ccc2c1`, the Activity (in the assay on Eleusine indica [1]; in the assay with Pyricularia oryzae; in assay [2]; with Echinochloa crus-galli [3]; in the assay on Cyperus compressus; with Eleusine indica [4]) was less than 39% each time. Further, the Activity in the assay with Chenopodium album [5] was less than 39%; with Echinochloa crus-galli [6], less than 39%; with Oryza sativa, 40%; with Persicaria hydropiper [7] it was less than 39%; in the assay on Botrytis cinerea, less than 39%; in the assay on Chenopodium album [8], less than 39%. Also, the Activity with Persicaria hydropiper [9], in the assay on Echinochloa crus-galli [10], in the assay with Xanthomonas axonopodis, with Amaranthus viridis [11], with Fusarium fujikuroi and in the assay with Amaranthus viridis [12] was less than 39% in each case.

`c1ccc(-c2nc3ccccc3o2)nc1`: the Activity in the assay on Eleusine indica [1] is on record as less than 39%; in the assay on Pyricularia oryzae it was less than 39%; in [2], less than 39%; in the assay with Echinochloa crus-galli [3], less than 39%; in the assay on Cyperus compressus, 40%; in the assay with Eleusine indica [4] it was less than 39%. For the same compound, the Activity in the assay with Chenopodium album [5], in the assay on Echinochloa crus-galli [6], in the assay with Oryza sativa, in the assay with Persicaria hydropiper [7], with Botrytis cinerea and in the assay on Chenopodium album [8] was less than 39% throughout. Further, the Activity in the assay on Persicaria hydropiper [9], in the assay on Echinochloa crus-galli [10], in the assay with Xanthomonas axonopodis, with Amaranthus viridis [11], in the assay on Fusarium fujikuroi and with Amaranthus viridis [12] was less than 39% each time.

In the case of `COc1ccc2sc(-c3ccncc3)nc2c1`, the Activity was less than 39% in the assay with Eleusine indica [1]; less than 39% in the assay with Pyricularia oryzae; less than 39% in assay [2]; less than 39% with Echinochloa crus-galli [3]; 60% in the assay with Cyperus compressus; less than 39% with Eleusine indica [4]. The Activity with Chenopodium album [5], in the assay on Echinochloa crus-galli [6], with Oryza sativa, in the assay on Persicaria hydropiper [7], in the assay with Botrytis cinerea and with Chenopodium album [8] was less than 39% throughout. In addition, the Activity with Persicaria hydropiper [9], in the assay with Echinochloa crus-galli [10], with Xanthomonas axonopodis, with Amaranthus viridis [11], in the assay with Fusarium fujikuroi and in the assay with Amaranthus viridis [12] was less than 39% in each case.

As for `CCOc1ccc2sc(-c3ccncc3)nc2c1`, the Activity was less than 39% in the assay on Eleusine indica [1]; less than 39% in the assay with Pyricularia oryzae; less than 39% in assay [2]; less than 39% in the assay on Echinochloa crus-galli [3]; more than 80% in the assay with Cyperus compressus; less than 39% in the assay on Eleusine indica [4]. The Activity with Chenopodium album [5], in the assay with Echinochloa crus-galli [6], with Oryza sativa, with Persicaria hydropiper [7], in the assay with Botrytis cinerea and in the assay on Chenopodium album [8] was less than 39% each time. Also, the Activity in the assay with Persicaria hydropiper [9], in the assay with Echinochloa crus-galli [10], with Xanthomonas axonopodis, with Amaranthus viridis [11], with Fusarium fujikuroi and in the assay with Amaranthus viridis [12] was less than 39% each time.

For the compound `c1ccc2nc(-c3nc4ccccc4s3)ccc2c1`, the Activity (with Eleusine indica [1]; with Pyricularia oryzae; in assay [2]; in the assay on Echinochloa crus-galli [3]; in the assay with Cyperus compressus; in the assay with Eleusine indica [4]) was less than 39% in each case. The Activity with Chenopodium album [5], in the assay on Echinochloa crus-galli [6], in the assay with Oryza sativa, with Persicaria hydropiper [7], with Botrytis cinerea and with Chenopodium album [8] was less than 39% throughout. The Activity in the assay on Persicaria hydropiper [9], with Echinochloa crus-galli [10], with Xanthomonas axonopodis, in the assay with Amaranthus viridis [11], in the assay on Fusarium fujikuroi and with Amaranthus viridis [12] was less than 39% throughout.

With `c1ccc2oc(-c3nc4ccccc4s3)nc2c1`, the Activity (in the assay with Eleusine indica [1]; with Pyricularia oryzae; in assay [2]; with Echinochloa crus-galli [3]; in the assay with Cyperus compressus; in the assay with Eleusine indica [4]) was less than 39% in each case. Also, the Activity in the assay on Chenopodium album [5], in the assay with Echinochloa crus-galli [6], in the assay with Oryza sativa, in the assay on Persicaria hydropiper [7], in the assay with Botrytis cinerea and with Chenopodium album [8] was less than 39% throughout. Moreover, the Activity with Persicaria hydropiper [9], in the assay on Echinochloa crus-galli [10], in the assay on Xanthomonas axonopodis, in the assay with Amaranthus viridis [11], with Fusarium fujikuroi and with Amaranthus viridis [12] was less than 39% each time.

For `c1ccc2oc(-c3ccncc3)nc2c1`, the Activity (in the assay on Eleusine indica [1]; in the assay on Pyricularia oryzae; in [2]; with Echinochloa crus-galli [3]; with Cyperus compressus; in the assay on Eleusine indica [4]) was less than 39% throughout. In addition, the Activity in the assay on Chenopodium album [5] is less than 39%; with Echinochloa crus-galli [6], less than 39%; in the assay with Oryza sativa, less than 39%; in the assay with Persicaria hydropiper [7], less than 39%; in the assay on Botrytis cinerea, 40%; in the assay with Chenopodium album [8], less than 39%. In addition, the Activity in the assay on Persicaria hydropiper [9] is listed as less than 39%; in the assay on Echinochloa crus-galli [10], 40%; in the assay with Xanthomonas axonopodis it was less than 39%; in the assay with Amaranthus viridis [11] it was less than 39%; with Fusarium fujikuroi, 60%; in the assay with Amaranthus viridis [12], less than 39%.

For the compound `COc1ccc2[nH]c(-c3ccncc3)nc2c1`, the Activity with Eleusine indica [1] is given as less than 39%; in the assay on Pyricularia oryzae, more than 80%; in assay [2], 40%; with Echinochloa crus-galli [3] it was less than 39%; in the assay with Cyperus compressus, less than 39%; with Eleusine indica [4], less than 39%. Moreover, the Activity is reported as less than 39% with Chenopodium album [5]; less than 39% with Echinochloa crus-galli [6]; less than 39% in the assay with Oryza sativa; less than 39% in the assay with Persicaria hydropiper [7]; 60% with Botrytis cinerea; less than 39% with Chenopodium album [8]. The Activity in the assay on Persicaria hydropiper [9] was less than 39%; in the assay with Echinochloa crus-galli [10] it was less than 39%; in the assay with Xanthomonas axonopodis it was 60%; in the assay with Amaranthus viridis [11] it was less than 39%; in the assay on Fusarium fujikuroi, less than 39%; with Amaranthus viridis [12] it was less than 39%.

In the case of `Cc1cccc2[nH]c(-c3ccccn3)nc12`, the Activity in the assay on Eleusine indica [1] is on record as less than 39%; in the assay on Pyricularia oryzae, 40%; in [2], less than 39%; in the assay with Echinochloa crus-galli [3], less than 39%; in the assay with Cyperus compressus it was less than 39%; with Eleusine indica [4] it was less than 39%. Besides, the Activity in the assay with Chenopodium album [5] is on record as less than 39%; with Echinochloa crus-galli [6] it was less than 39%; with Oryza sativa, less than 39%; in the assay on Persicaria hydropiper [7], less than 39%; in the assay on Botrytis cinerea it was 60%; in the assay on Chenopodium album [8] it was less than 39%. Moreover, the Activity with Persicaria hydropiper [9], with Echinochloa crus-galli [10], with Xanthomonas axonopodis, in the assay with Amaranthus viridis [11], in the assay with Fusarium fujikuroi and in the assay with Amaranthus viridis [12] was less than 39% in each case.

Turning to `O=[N+]([O-])c1cccc2nc(-c3ccccn3)[nH]c12`, the Activity in the assay on Eleusine indica [1] is reported as less than 39%; with Pyricularia oryzae, 40%; in [2], less than 39%; in the assay with Echinochloa crus-galli [3], less than 39%; with Cyperus compressus, less than 39%; in the assay with Eleusine indica [4], less than 39%. Besides, the Activity in the assay with Chenopodium album [5], in the assay with Echinochloa crus-galli [6], in the assay with Oryza sativa, in the assay with Persicaria hydropiper [7], in the assay with Botrytis cinerea and with Chenopodium album [8] was less than 39% each time. Also, the Activity in the assay on Persicaria hydropiper [9], in the assay on Echinochloa crus-galli [10], with Xanthomonas axonopodis, in the assay with Amaranthus viridis [11], with Fusarium fujikuroi and in the assay with Amaranthus viridis [12] was less than 39% throughout.

As for `CCOc1ccc2sc(-c3ccccn3)nc2c1`, the Activity with Eleusine indica [1] is reported as less than 39%; with Pyricularia oryzae, less than 39%; in [2], less than 39%; in the assay with Echinochloa crus-galli [3] it was less than 39%; in the assay with Cyperus compressus, 40%; with Eleusine indica [4], less than 39%. Moreover, the Activity is on record as 60% in the assay with Chenopodium album [5]; less than 39% in the assay with Echinochloa crus-galli [6]; less than 39% in the assay with Oryza sativa; less than 39% in the assay on Persicaria hydropiper [7]; less than 39% in the assay on Botrytis cinerea; less than 39% with Chenopodium album [8]. For the same compound, the Activity is on record as less than 39% in the assay with Persicaria hydropiper [9]; 40% with Echinochloa crus-galli [10]; less than 39% in the assay with Xanthomonas axonopodis; less than 39% with Amaranthus viridis [11]; less than 39% with Fusarium fujikuroi; 40% with Amaranthus viridis [12].

For the origin of these results see ChEMBL document CHEMBL3045339, “Synthesis of benzoxazoles, benzothiazoles and benzimidazoles and evaluation of their antifungal, insecticidal and herbicidal activities” (1992).
